Results published in US20040121965A1, “Method of treating resistant tumors” (Wyeth Holdings Corporation, priority 2002, published 2004).
Where two headings read alike, the source gives them in different places. Marks after values point to notes of the source that are not given here.

Key:
Moser = assay: Cell survival assay (SRB), Moser; assay type: cell-based; conditions: 72 h
Procedure: (§1) 2.2. Cell Survival Assay: Standard Pharmacological Test Procedure. […] Compounds are incubated with cells for 3 days.

NCI-H1299 = assay: Cell survival assay (SRB), NCI-H1299; assay type: cell-based; conditions: Homo sapiens
Procedure: as §1

A498 = assay: Cell survival assay (SRB), A498; assay type: cell-based; conditions: Homo sapiens
Procedure: as §1

SK-MES-1 = assay: Cell survival assay (SRB), SK-MES-1; assay type: cell-based; conditions: Homo sapiens
Procedure: as §1

SW620 = assay: Cell survival assay (SRB), SW620; assay type: cell-based; conditions: Homo sapiens, SW-620, 72 h
Procedure: as §1

BT474 = assay: Cell survival assay (SRB), BT474; assay type: cell-based; conditions: Homo sapiens, BT-474, 72 h
Procedure: as §1

A549 = assay: Cell survival assay (SRB), A549; assay type: cell-based; conditions: Homo sapiens
Text: Cells lines with previously known mechanisms of resistance. […] Res. 8: 207-218,1996); KB-3-1 (parental derived from an epidermoid carcinoma), KB-8.5, KB-V1 (Akiyama S-I, Fojo A, Hanover J A, Pastan I, Gottesman M M. Isolation and genetic characterization of human KB cell lines resistant to multiple drugs. Somatic Cell Mol. Gen., 11: 117-126,1985; Shen D-W, Cardarelli C, Hwang J, Cornwell M, Richert N, Ishii S, Pastan I, Gottesman MM. […] J. Biol. Chem., 261: 7762-7770, 1986); and HL-60 (parental derived from human leukemia) and HL60/AR (McGrath T., Center M. S. Adriamycin resistance in HL60 cells in the absence of detectable P-glycoprotein. Biochem. Res. Commun., 145:1171-1176,1987); A549 and A549.EpoB40 (He L., Yang C.-P.H., Horwitz S. B. Mutations in p-tubulin map to domains involved in regulation of microtubule stability in epothilone-resistant cell lines. Molecular Cancer Therapeutics. 1: 3-10, 2001). HCT-15 human colon carcinoma and DLD-1 human colon carcinoma are obtained from American Tissue Culture Collection. The MX-1W carcinoma is a Wyeth variant orginally obtained as MX-1 breast carcinoma from the National Cancer Institute. Cell lines selected for resistance to Representative Example 129. […]
2.2. […] Absorbance is read on a Victor V multi-label plate reader (Perkin Elmer, Gaithersburg, Md.).

[1] = test system: Human Melanoma Carcinoma Lox; conditions: for % T/C on day 7 / % T/C on day 12: Lox, days 1,5,9; for Activity in nude mice animal model (% T/C @ MTD on days 11-15) LOX: staged LOX xenograft, at MTD ('<': MTD not achieved); for inhibition of growth of Lox melanoma xenografts: day 14, P<0.01
A549.EpoB40 = assay type: cell-based; conditions: vs A549; below 1 = sensitive
Text: (§2) Cells lines with previously known mechanisms of resistance. […] Res. 8: 207-218,1996); KB-3-1 (parental derived from an epidermoid carcinoma), KB-8.5, KB-V1 (Akiyama S-I, Fojo A, Hanover J A, Pastan I, Gottesman M M. Isolation and genetic characterization of human KB cell lines resistant to multiple drugs. Somatic Cell Mol. Gen., 11: 117-126,1985; Shen D-W, Cardarelli C, Hwang J, Cornwell M, Richert N, Ishii S, Pastan I, Gottesman MM. […] J. Biol. Chem., 261: 7762-7770, 1986); and HL-60 (parental derived from human leukemia) and HL60/AR (McGrath T., Center M. S. Adriamycin resistance in HL60 cells in the absence of detectable P-glycoprotein. Biochem. Res. Commun., 145:1171-1176,1987); A549 and A549.EpoB40 (He L., Yang C.-P.H., Horwitz S. B. Mutations in p-tubulin map to domains involved in regulation of microtubule stability in epothilone-resistant cell lines. Molecular Cancer Therapeutics. 1: 3-10, 2001). HCT-15 human colon carcinoma and DLD-1 human colon carcinoma are obtained from American Tissue Culture Collection. The MX-1W carcinoma is a Wyeth variant orginally obtained as MX-1 breast carcinoma from the National Cancer Institute. Cell lines selected for resistance to Representative Example 129. KB-3-1 cells are selected for resistance to Example 129 by chronically exposing cells to increasing concentrations of Example 129.
2.2. Cell Survival Assay: Standard Pharmacological Test Procedure. The concentration of candidate inhibitor required to inhibit 50% of cell growth (IC50) is done according to previously reported methods. […] Compounds are serially diluted into media as 2× stocks and 100 μl added to cells in duplicate. Compounds are incubated with cells for 3 days. At the end of the incubation period the sulforhodamine B (SRB) assay, which measures protein content as an assessment of cell survival, is performed as described previously (Skehan P, Storeng R, Scudiero D, Monks A, McMahon J, Vistica D, Warren J T, Bokesch H, Kenney S, Boyd MR. New calorimetric cytotoxicity assay for anticancer-drug screening. J Natl Cancer Inst 1990 Jul 4;82(13):1107-12) with some modification as follows. For KB-3-1 cells with 20% FCS, media is gently decanted and replaced with 200 μl of serum-free media mixed with cold 50% TCA for a final concentration of 10% TCA. The plates are incubated for 1 hr at 4° C., followed by washing 5 times in cold distilled water, then air dried overnight. The fixed cells are stained for 10 min with 80 μl of 0.04% SRB solution prepared in 1% glacial acetic acid. Stain is discarded and plates washed 5 times in 1% glacial acetic acid, then air-dried until completely dry. […] Absorbance is read on a Victor V multi-label plate reader (Perkin Elmer, Gaithersburg, Md.).

[2] = test system: Human Epidermoid Carcinoma KB-3-1; assay: Growth of tumors in nude mice, KB-3-1 xenograft; assay type: in vivo; conditions: for % T/C on day 7 / % T/C on day 14 / % T/C on day 21: KB-3-1, days 1,5,9
Procedure: (§3) 2.4. Growth of Tumors in Nude Mice.
In these experiments, xenografts are implanted subcutaneously into the flanks of nude mice. […] Relative tumor mass compared to controls are assessed during the 21-day post-staging period.
Groups of 5 female nu/nu mice are injected with 1.5×10^6 KB-3-1 (A) or Lox cells (B). […] Relative tumor growth is determined during the experiment and % T/C calculated. Statistical analyses are Student's t-test of treated time points vs. vehicle (*, P<0.05; **, P<0.01)

DLD-1 tumor = assay: Growth of tumors in nude mice, DLD-1 xenograft; assay type: in vivo; conditions: days 1,5,9
Text: as §3

S1-M1-3.2 (MXR) = assay: Cell survival assay, S1-M1-3.2 (MXR); assay type: cell-based, human; conditions: for IC50: Homo sapiens, read-out: S1-M1-3.2 (MXR) IC50, nM (N)
Text: as §2
2.2. Cell Survival Assay: Standard Pharmacological Test Procedure. The concentration of candidate inhibitor required to inhibit 50% of cell growth (IC50) is done according to previously reported methods. […] Compounds are serially diluted into media as 2× stocks and 100 μl added to cells in duplicate. Compounds are incubated with cells for 3 days. At the end of the incubation period the sulforhodamine B (SRB) assay, which measures protein content as an assessment of cell survival, is performed as described previously (Skehan P, Storeng R, Scudiero D, Monks A, McMahon J, Vistica D, Warren J T, Bokesch H, Kenney S, Boyd MR. New calorimetric cytotoxicity assay for anticancer-drug screening. J Natl Cancer Inst 1990 Jul 4;82(13):1107-12) with some modification as follows. For KB-3-1 cells with 20% FCS, media is gently decanted and replaced with 200 μl of serum-free media mixed with cold 50% TCA for a final concentration of 10% TCA. The plates are incubated for 1 hr at 4° C., followed by washing 5 times in cold distilled water, then air dried overnight. The fixed cells are stained for 10 min with 80 μl of 0.04% SRB solution prepared in 1% glacial acetic acid. Stain is discarded and plates washed 5 times in 1% glacial acetic acid, then air-dried until completely dry. Stained cell product is dissolved in 150 μl of 10 mM Trizma Base and placed on a shaker for 20 minutes until fully dissolved. Absorbance is read on a Victor V multi-label plate reader (Perkin Elmer, Gaithersburg, Md.).
J. Cell Science,113: 2011-2021, 2000). It was unknown whether the hemiasterlin family of peptides interact with these drug pumps.

KB-8.5 tumor = assay: Growth of tumors in nude mice, KB-8-5 xenograft; assay type: in vivo; conditions: days 1,5,9
Text: as §3

Lox = assay: Cell survival assay (SRB), Lox; assay type: cell-based; conditions: Homo sapiens, 72 h
Procedure: as §1

[3] = IV in saline, days 1, 5, 9 post-staging, 0.5-1 mg/kg, tumors 1-2 gram
[4] = LOX xenograft model, IV days 1, 5 and 9

## CC(=O)O[C@H]1C(=O)[C@@]2(C)[C@H]([C@H](OC(=O)c3ccccc3)[C@]3(O)C[C@H](OC(=O)[C@H](O)[C@@H](NC(=O)c4ccccc4)c4ccccc4)C(C)=C1C3(C)C)[C@]1(OC(C)=O)CO[C@@H]1C[C@@H]2O [paclitaxel, reference compound]
Moser; Moser, colon, 3 days, SRB staining, read-out: IC50
  IC50: 1590 ± 1990 nM
NCI-H1299; 72 h, NCI-H1299, NSCLC, 3 days, SRB staining, read-out: IC50
  IC50: 37.7 ± 12.6 nM
A498; 72 h, A498, renal, 3 days, SRB staining, read-out: IC50
  IC50: 27.5 nM
SK-MES-1; 72 h, SK-MES-1, NSCLC, 3 days, SRB staining, read-out: IC50
  IC50: 29 nM
SW620; SW620, colon, 3 days, SRB staining, read-out: IC50
  IC50: 18 nM
BT474; BT474, breast, 3 days, SRB staining, read-out: IC50
  IC50: 10 nM
A549; 72 h, A549, NSCLC, 3 days, SRB staining, read-out: IC50
  IC50: 8.8 ± 3.6 nM
[1]; paclitaxel 60 mg/kg IV
  % T/C on day 7: 16** %
  % T/C on day 12: 4** %
[1]
  Activity in nude mice animal model (% T/C @ MTD on days 11-15) LOX: 4%
A549.EpoB40
  resistance of A549.EpoB40 cells: 13 fold
[2]; paclitaxel 60 mg/kg IV
  % T/C on day 7: 5** %
  % T/C on day 14: 0** %
  % T/C on day 21: 0** %
DLD-1 tumor; paclitaxel 60 mg/kg IV
  % T/C on day 7: 71%
  % T/C on day 14: 73%
S1-M1-3.2 (MXR); S1-M1-3.2, MXR over-expression, Table 5
  IC50: 108 ± 88 nM
KB-8.5 tumor; paclitaxel 60 mg/kg IV
  % T/C on day 6: 63** %
  % T/C on day 14: 86%
Lox; Lox, melanoma, 3 days, SRB staining, read-out: IC50
  IC50: 17.3 ± 5.6 nM

## CN[C@H](C(=O)N[C@H](C(=O)N(C)[C@H](/C=C(\C)C(=O)O)C(C)C)C(C)(C)C)C(C)(C)c1ccccc1 [Example 129, N,β,β-trimethyl-L-phenylalanyl-N^1-[(1S,2E)-3-carboxy-1-isopropylbut-2-enyl]-N^1,3-dimethyl-L-valinamide]
Moser
  IC50: 5.3 ± 4.1 nM
NCI-H1299; NCI-H1299, 72 h
  IC50: 6.8 ± 6.1 nM
A498; A498, 72 h
  IC50: 0.8 nM
SK-MES-1; SK-MES-1, 72 h
  IC50: 2.6 nM
SW620
  IC50: 3.6 ± 0.8 nM
BT474
  IC50: 2.5 ± 1.6 nM
A549; A549, 72 h
  IC50: 1.1 ± 0.5 nM
[1]; 2 mg/kg oral gavage days 1,5,9
  inhibition of growth of Lox melanoma xenografts: 63%
[1]; 3 mg/kg oral gavage days 1,5,9
  inhibition of growth of Lox melanoma xenografts: 97%
[1]; 2 and 3 mg/kg oral gavage days 1,5,9
  weight loss: less than 10%
[1]; [3]
  growth inhibition of melanoma Lox tumors: > 95%
[1]; [4]
  maximum effective dose: ~1.6 mg/kg
  minimum effective dose: approximately 200 μg/kg
[1]; Example 129 1.6 mg/kg IV
  % T/C on day 7: 12** %
  % T/C on day 12: 2** %
[1]
  Activity in nude mice animal model (% T/C @ MTD on days 11-15) LOX: 2.5%
A549.EpoB40
  resistance of A549.EpoB40 cells: 0.6 fold
[2]; [3]
  growth inhibition of epidermoid KB-3-1 tumors: > 95%
[2]; Example 129 1.6 mg/kg IV
  % T/C on day 7: 10** %
  % T/C on day 14: 1** %
  % T/C on day 21: 23* %
DLD-1 tumor; Example 129 1.6 mg/kg IV
  % T/C on day 7: 22** %
  % T/C on day 14: 20** %
  % T/C on day 21: 44%
S1-M1-3.2 (MXR)
  IC50: 4.8 ± 2.1 nM
S1-M1-3.2 (MXR); IC50 S1-M1-3.2 / IC50 S1
  RR, relative resistance: 1.3
KB-8.5 tumor; Example 129 1.6 mg/kg IV
  % T/C on day 6: 25** %
  % T/C on day 14: 16%
  % T/C on day 21: 47** %
Lox; LOX
  IC50: 1.4 ± 0.6 nM
